The results in this text go back to US7888369B2, “Oxazoloisoquinoline derivatives as thrombin receptor antagonists” (Schering Corporation, priority 2005, dated 2011).

This test has as its target T1, thrombin receptor (Homo sapiens, UniProt P25116).
T1 construct: tissue North Jersey Blood Center (East Orange, N.J.); host or cells: platelet membranes prepared from platelet concentrates
T1 sequence (P25116 22-425): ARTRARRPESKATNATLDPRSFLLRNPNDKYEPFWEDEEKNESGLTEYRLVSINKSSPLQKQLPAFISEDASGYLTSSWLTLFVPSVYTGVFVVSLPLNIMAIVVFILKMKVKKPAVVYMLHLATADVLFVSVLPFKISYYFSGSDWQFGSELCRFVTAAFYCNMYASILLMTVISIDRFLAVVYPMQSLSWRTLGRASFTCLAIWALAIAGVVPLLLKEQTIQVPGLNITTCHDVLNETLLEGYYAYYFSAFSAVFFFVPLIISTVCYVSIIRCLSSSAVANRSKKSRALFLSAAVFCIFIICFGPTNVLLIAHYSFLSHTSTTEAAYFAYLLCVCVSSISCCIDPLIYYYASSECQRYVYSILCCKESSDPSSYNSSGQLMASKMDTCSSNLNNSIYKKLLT
The experiment in a line: High throughput thrombin receptor radioligand binding assay ([3H]haTRAP, platelet membranes). As for the experimental part: In Vitro Testing Procedure for Thrombin Receptor Antagonists:
Preparation of [^3H]ha TRAP
A(pF-F)R(ChA)(hR)(I2—Y)—NH2 (1.03 mg) and 10% Pd/C (5.07 mg) were suspended in DMF (250 μl) and diisopropylethylamine (10 μl). The vessel was attached to the tritium line, frozen in liquid nitrogen and evacuated. Tritium gas (342 mCi) was then added to the flask, which was stirred at room temperature for 2 hours. At the completion of the reaction, the excess tritium was removed and the reacted peptide solution was diluted with DMF (0.5 ml) and filtered to remove the catalyst. The collected DMF solution of the crude peptide was diluted with water and freeze dried to remove the labile tritium. The solid peptide was redissolved in water and the freeze drying process repeated. The tritiated peptide ([^3H]haTRAP) was dissolved in 0.5 ml of 0.1% aqueous TFA and purified by HPLC using the following conditions: column, Vydac™ C18, 25 cm×9.4 mm I.D.; mobile phase, (A) 0.1% TFA in water, (B) 0.1% TFA in CH3CN; gradient, (A/B) from 100/0 to 40/60 over 30 min; flow rate, 5 ml/min; detection, UV at 215 nm. The radiochemical purity of [^3H]haTRAP was 99% as analyzed by HPLC. A batch of 14.9 mCi at a specific activity of 18.4 Ci/mmol was obtained.
Preparation of Platelet Membranes
Platelet membranes were prepared using a modification of the method of Natarajan et al. (Natarajan et al, Int. J. Peptide Protein Res. 45:145-151 (1995)) from 20 units of platelet concentrates obtained from the North Jersey Blood Center (East Orange, N.J.) within 48 hours of collection. All steps were carried out at 4° C. under approved biohazard safety conditions. Platelets were centrifuged at 100×g for 20 minutes at 4° C. to remove red cells. The supernatants were decanted and centrifuged at 3000×g for 15 minutes to pellet platelets. Platelets were re-suspended in 10 mM Tris-HCl, pH 7.5, 150 mM NaCl, 5 mM EDTA, to a total volume of 200 ml and centrifuged at 4400×g for 10 minutes. This step was repeated two additional times. […] Protein concentration was determined by a Lowry assay (Lowry et al., J. Biol. Chem., 193:265-275 (1951)). […]

The structures appear in SMILES notation.

Turning to `O=C1OC[C@@H]2C(/C=C/c3ccc(-c4cccc(F)c4)cn3)c3ccccc3CN12` (single isomer, unassigned) [Compound 12, 10-{2-[5-(3-Fluoro-phenyl)-pyridin-2-yl]-vinyl}-1,5,10,10a-tetrahydro-oxazolo[3,4-b]isoquinolin-3-one], the inhibition – broadly, the relative decrease from the control value, in per cent – at 1 µM (at 1 μM, read-out: Thrombin Receptor Antagonist Activity: % inhibition) stood at 27%.

Turning to `O=C1OC[C@@H]2C(/C=C/c3ccc(-c4cccc(F)c4)cn3)C3CCCCC3CN12` (stereo partly drawn) [Compound 16], the affinity corresponds to a Ki of 12 nM.

With `O=C1OC[C@@H]2C(/C=C/c3ccc(-c4cccc(F)c4)cn3)c3ccccc3CN12` (single isomer, unassigned) [Compound 13, 10-{2-[5-(3-Fluoro-phenyl)-pyridin-2-yl]-vinyl}-1,5,10,10a-tetrahydro-oxazolo[3,4-b]isoquinolin-3-one], under “at 1 μM”, the “Thrombin Receptor Antagonist Activity: % inhibition” value turned out to be 15%.
